Consider one compound from patent publication US20100268321A1, “DRUG-RELEASING GRAFT” (C R BARD, INC., priority 2005, published 2010).

Structures are written as SMILES.

This data set in a line: Controlled release study: release of chlorhexidine acetate (ChAc) from drug-loaded ePTFE vascular cuff graft sections into PBS, UV absorbance. The data set is classed as physicochemical. The following applies: from ePTFE cuff section in PBS. On the procedure:
With respect to a vascular cuff graft, examples of which are shown in FIGS. 2 and 3, experimentation was conducted to study the release of a drug without a polymeric carrier from the cuff surface. The drug chosen for the experiment was chlorhexidine acetate (ChAc) and the release time was scheduled for nine weeks. The materials and methods of the experiment included creating a calibration curve, preparing the vascular cuff grafts, and measuring absorbance, each of which is described in detail below.
Initially, a calibration curve was created to determine the concentration of ChAc in phosphate buffered saline (PBS). […] The absorbance of each of these solutions was determined using the Shimadzu UV-1601 spectrophotometer. A curve of absorbance versus concentration was expected to be linear. […]
To prepare the vascular cuff grafts, the drug was embedded therein using the following procedure. […] The cuff section weights with the loaded drug were then determined and recorded. The cuff section weights without the loaded drug were determined after the study by washing the cuffs with ethanol and drying. […]
Absorbance was measured to determine the amount of drug released from the cuff sections. […] The PBS solutions were then analyzed using the Shimadzu UV 1600 spectrophotometer. […] The absorbance at ˜286 nm was recorded by automatic peak detection by the spectrophotometer. […]

Take `CC(=O)O.CC(=O)O.NC(=N\CCCCCC/N=C(N)/N=C(\N)Nc1ccc(Cl)cc1)/N=C(\N)Nc1ccc(Cl)cc1` [ChAc, chlorhexidine acetate]: where the note is “after nine weeks”, the “levels of the drug in release medium” value is “still detectable”. For the setting “after one day”, the drug released result is reported as “approximately 50%”.
